In ChEMBL document CHEMBL1146337, “Efficient synthesis of substituted 7-methyl-2H,5H-pyrano[4,3-b]pyran-5-ones and evaluation of their in vitro antiproliferative/cytotoxic activities” (Bioorg Med Chem Lett, 2007):
Calls of active or inactive are those of the source. The rule behind the calls is not given here.

How the values were obtained:
SH-SY5Y [1] = assay: Cytotoxicity against human SH-SY5Y cells after 24 hrs; assay type: functional, cell-based
SH-SY5Y [2] = assay: Antiproliferative activity against human SH-SY5Y cells at 6.25 ug/mL after 24 hrs; assay type: functional
SH-SY5Y [3] = assay: Antiproliferative activity against human SH-SY5Y cells at 25 ug/mL after 24 hrs; assay type: functional
SH-SY5Y [4] = assay: Antiproliferative activity against human SH-SY5Y cells at 12.5 ug/mL after 24 hrs; assay type: functional
SH-SY5Y [5] = assay: Antiproliferative activity against human SH-SY5Y cells at 3.13 ug/mL after 24 hrs; assay type: functional
SH-SY5Y [6] = assay: Antiproliferative activity against human SH-SY5Y cells at 50 ug/mL after 24 hrs; assay type: functional
SH-SY5Y [7] = assay: Antiproliferative activity against human SH-SY5Y cells at 1.56 ug/mL after 24 hrs; assay type: functional
IPC = assay: Necrotic effect in human IPC cells at 12.5 ug/mL after 3 hrs; assay type: functional, cell-based

| SMILES | IC50 (SH-SY5Y [1]) [µM] | inhibition at 6.25 µg/mL (SH-SY5Y [2]) [%] | inhibition at 25 µg/mL (SH-SY5Y [3]) [%] | inhibition at 12.5 µg/mL (SH-SY5Y [4]) [%] | inhibition at 3.13 µg/mL (SH-SY5Y [5]) [%] | inhibition at 50 µg/mL (SH-SY5Y [6]) [%] | inhibition at 1.56 µg/mL (SH-SY5Y [7]) [%] | Activity (IPC) |
| --- | --- | --- | --- | --- | --- | --- | --- | --- |
| CC1=Cc2c(cc(C)oc2=O)OC1c1ccco1 (configuration not stated) | 49 | 30.9 | 64.3 | 50.6 | 21.6 | 64.4 | – | – |
| Cc1cc2c(c(=O)o1)C=C1C(C)(C)CCCC1(C)O2 (configuration not stated) | 31 | 18.4 | 74.2 | 72.9 | 1.11 | 75.1 | 8.34 | – |
| Cc1cc2c(c(=O)o1)C=C1C(C)(C)CC=CC1(C)O2 (configuration not stated) | 47 | 16.9 | 79.8 | 51.9 | 6.01 | 84.8 | – | – |
| Cc1cc2c(c(=O)o1)C=C1CCCCC1(C)O2 (configuration not stated) | 185 | – | 11.4 | 1.18 | – | 60.6 | – | – |
| Cc1cc2c(c(=O)o1)C=C(c1ccccc1)C(CC(C)C)O2 (configuration not stated) | 93 | – | 45.7 | 14.6 | – | 81.7 | – | – |
| Cc1cc2c(c(=O)o1)C=C(C(C)C)C(CC(C)C)O2 (configuration not stated) | 6.7 | 93.8 | 96.6 | 94 | 87.5 | 95.7 | 38.5 | inactive |
| CCCCCCCCC1C=Cc2c(cc(C)oc2=O)O1 (configuration not stated) | 76 | – | 60.1 | 21.1 | – | 83.3 | – | – |
| Cc1cc2c(c(=O)o1)C=C1CCCC1O2 (configuration not stated) | 252 | – | 14.9 | 19.3 | – | 51.2 | – | – |
| CC1=Cc2c(cc(C)oc2=O)OC1C (configuration not stated) | 200 | – | 43.8 | – | – | 53.8 | – | – |
| Cc1cc2c(c(=O)o1)C=C1C(C[C@H]3C[C@@H]1C3(C)C)O2 (some centres not stated) | 70 | – | 67.8 | 24.4 | – | 84.1 | – | – |
| CC(C)=CCCC1(C)C=Cc2c(cc(C)oc2=O)O1 (configuration not stated) | > 200 | – | 30.4 | – | – | 37.4 | – | – |
| CCC1C=Cc2c(cc(C)oc2=O)O1 (configuration not stated) | > 200 | – | 4.95 | 3.62 | – | 43.7 | – | – |
